This is an account of results in patent US10864150B2, “Hair treatment process” (KAO CORPORATION, priority 2013, dated 2020).

Each structure is given as a SMILES string.

A short description of this assay: Test Example 1: impact of tension on hair straightening. The note with it: then shampooed. The protocol: Three samples A-C of frizzy hair (bundles of 2 g Indian frizz hair, untreated, obtained from IHIP, International Hair Importers & Products, NY; see FIG. 1A) were shampooed, rinsed off with water and dried at ambient temperature. Then, an aqueous solution of 10 wt. % glyoxylic acid (pH 1.5, adjusted with NaOH) was applied to the samples A-C at a ratio of hair to solution of 1:1, uniformly distributed with a comb and left on the hair for 15 minutes at 40° C. Then, the samples were dried with a hair drier at a temperature of 90-100° C. for 10 minutes. The temperature was measured by holding an infrared thermometer at a distance of about 20 to 40 cm from the hair and scanning the area where the air stream comes into contact with the hair. The average of at least ten readings is then taken as the temperature. Samples A and B (Reference) were dried in the absence of mechanical tension and serve as reference samples. To sample C, mechanical tension was applied by fixing one end and holding the sample in an elongated state using a round brush. Reference sample B was subsequently treated with a straightening iron at a temperature of 230° C. The samples A-C were rinsed off with water, shampooed, combed and dried at ambient temperature.

On to `O=CC(=O)O` [glyoxylic acid], for which the “straightening of hair after treatment” value by setting is: (sample A (reference): 10 wt. % aqueous solution pH 1.5, dried with hair drier 90-100° C. in relaxed state, no mechanical tension) “does not lead to a substantial straightening”; (sample B (reference): 10 wt. % aqueous solution pH 1.5, dried without tension, then straightening iron at 230° C.) “straightening of the hair”. Besides, the “appearance of hair after treatment (straightening, frizz)” value (sample C: 10 wt. % aqueous solution pH 1.5, 15 min at 40° C., dried with hair drier 90-100° C. for 10 min under mechanical tension (round brush), no iron, versus sample A) was “remarkable straightened appearance and reduced frizz”.
